Several values for one entry are separate records, joined by “and”; a condition that tells them apart may be missing. Equal entries are not always repeated. Where two headings read alike, the source gives them in different places.
How the values were obtained:
[1] = ML residues in milk of lactating dairy cows after single IM dose of ML/vaccine combination (LC-MS/MS); assay type: in vivo, Dairy cows (Friesian and Friesian cross); conditions: for Residues in milk at 7 days after treatment relative to ACVM MRLs / Residues in milk at 21 days after treatment relative to LOQ: 0.3 and 0.4 mg/kg IM; for concentration at 21 day / concentration at 7 day / concentration at 14 day: female, Friesian and Friesian cross, cattle, intramuscular; for concentration at 21 day / ML residue in milk, Day 7 / ML residue in milk, Day 14 / ML residue in milk, Day 21 / concentration at 7 day / concentration at 14 day / ML residue in milk fat, Day 7 / ML residue in milk fat, Day 14 / ML residue in milk fat, Day 21: individual cows
Procedure: (§1) Study Objectives: 1) To measure ML residues in milk and tissues of lactating dairy cows after a single dose of an experimental formulation of eprinomectin, ivermectin, moxidectin or doramectin combined with an inactivated rotavirus, coronavirus and Escherichia coli vaccine was administered by intramuscular injection at 0.3 and 0.4 mg macrocyclic lactone/kg bodyweight. 2) To evaluate local tissue irritancy of the experimental formulations when administered to cattle by intramuscular injection.
Experimental formulations of each of four macrocyclic lactones were separately combined with equal parts of a registered vaccine, Rotavec® Corona (Schering-Plough). The recommended dose of Rotavec® Corona is 2 mL per animal, which was diluted to produce 4 mL of ML/vaccine combination. Each ML/vaccine combination contained 40 mg/mL macrocyclic lactone.
Methods: On day −5, fifty-four animals were identified for screening and were checked for mastitis by palpation of the mammary gland, visualization of the mammary secretions and Rapid Mastitis Test (RMT, Immucell, Portland, Me.). Individual milk samples were collected for somatic cell count (SCC) and thirty-three animals that met the inclusion criteria were selected for the study. Of the thirty-three animals, the cow with the highest average daily milk yield, as assessed over a seven-day period, was allocated as the control. The remaining thirty-two animals were ranked from highest to lowest on average daily milk yield, over the same time period, and divided into four blocks of eight animals each. A random number was generated for each animal using the Microsoft Excel random number generator function. Within each block, the lowest random number was allocated to Group 1, the second lowest to Group 2 and sequentially through to Group 8, creating eight groups of four animals each (Table 18).
On Day 0, the cows were weighed and blood samples were collected from all animals in Groups 1 and 2 for use in a subsequent plasma eprinomectin assay. The blood samples were stored frozen at or colder than −18° C. pending laboratory analysis. Each animal was treated with the indicated formulation at the appropriate dose rate. Doses were calculated based upon the animal's Day 0 bodyweight to provide approximately 40 mg ML/mL. Calculated doses were rounded up to the nearest 0.2 mL.
(§2) The formulations were administered by deep intramuscular injection in the anterior neck region. Injection sites were clean and dry and inspected for lesions prior to injection. Injections were administered with a different 10 mL syringe for each product. A sterile 18 gauge 1½ inch needle was used for each injection. The time of treatment was recorded. Evidence of pain on injection was assessed.
Blood samples were collected from all animals in Groups 1 and 2 for plasma eprinomectin assay on Days 1, 3 and 7 and stored frozen as described. The time of blood collection was recorded. Herd test equipment (De Laval) was used to collect an approximately 2% sample representative of the entire milking for each individual cow at the morning milking on each of Days 1-10 following treatment, and at the morning milking on Days 14, 21 and 35. Duplicate subsamples were decanted for each cow in Groups 1-4 and 7-9 and triplicate subsamples were decanted for each cow in Groups 5-6. Each sample from treated animals measured approximately 30 mL. The start and finish times for each milking of the 33 study animals were recorded to give an estimate of the actual time of milk sample collection.
The study animals were milked after the main herd. The milk line was thoroughly flushed with cold water prior to milking the study animals. The herd test equipment was cleaned between samplings. It was washed “in-line” with the milking plant wash. Sample vessels were then further cleaned through a dishwasher. The sampler connections were further cleaned by soaking in hot acid, then rinsed. Milk yields at each milking at which samples were collected were measured and recorded. […]

[2] = cited from earlier work
cattle = test: Local tissue irritancy / injection site reactions after intramuscular injection; assay type: in vivo, Dairy cows (Friesian and Friesian cross); conditions: for Injection site reactions, Count, Day 1 / Injection site reactions, Count, Day 3 / Injection site reactions, Count, Day 7 / Injection site reactions, Count, Day 14 / Injection site reactions, Count, Day 21: cows with reaction in group of 4; for Animals with injection site reactions that persisted at least until 21 days after treatment: group of 4 cows
Procedure: as §1, §2
Injection sites were examined by inspection and palpation at the morning milking on Days 1, 3, 7 and 14. Any visible or palpable reactions were described and measured (width, length and depth). Reactions that persisted after day 14 were re-evaluated on Day 21.

[3] = lactating cattle; cited from earlier work
[4] = milk, 0.3 mg/kg, nominal 0.3 mg/kg single IM dose of ML/Rotavec Corona combination, milk (whole milk), read-out: ML residue in milk, Day 21
[5] = nominal 0.3 mg/kg single IM dose of ML/Rotavec Corona combination, milk (whole milk)
[6] = nominal 0.4 mg/kg single IM dose of ML/Rotavec Corona combination, milk (whole milk)
[7] = administered topically to cattle
[8] = nominal 0.3 mg/kg single IM dose of ML/Rotavec Corona combination, milk fat
[9] = nominal 0.4 mg/kg single IM dose of ML/Rotavec Corona combination, milk fat

SMILES: CO[C@H]1C[C@H](O[C@H]2[C@H](C)O[C@@H](O[C@@H]3/C(C)=C/C[C@@H]4C[C@@H](C[C@]5(C=C[C@H](C)[C@@H](C6CCCCC6)O5)O4)OC(=O)[C@@H]4C=C(C)[C@@H](O)[C@H]5OC/C(=C\C=C\[C@@H]3C)[C@]54O)C[C@@H]2OC)O[C@@H](C)[C@@H]1O [Doramectin]
- Residues in milk at 7 days after treatment relative to ACVM MRLs [1]: near or above the ACVM MRLs
- Residues in milk at 21 days after treatment relative to LOQ [1]: above the LOQ
- concentration at 21 day [1, 4]: < 1 ng/g
- concentration at 21 day ([1]; milk, 0.4 mg/kg, nominal 0.4 mg/kg single IM dose of ML/Rotavec Corona combination, milk (whole milk), read-out: ML residue in milk, Day 21): 1 ng/g
- ML residue in milk, Day 7 [1, 5]: 0.0058 mg/kg and 0.0037 mg/kg and 0.0077 mg/kg and 0.0079 mg/kg
- ML residue in milk, Day 14 [1, 5]: <0.0010 mg/kg and 0.0012 mg/kg and 0.0031 mg/kg and 0.0015 mg/kg
- ML residue in milk, Day 21 [1, 5]: <0.0010 mg/kg (2×) and 0.0020 mg/kg
- ML residue in milk, Day 7 [1, 6]: 0.014 mg/kg and 0.0061 mg/kg and 0.011 mg/kg and 0.0056 mg/kg
- ML residue in milk, Day 14 [1, 6]: 0.0025 mg/kg (2×) and 0.0028 mg/kg and <0.0010 mg/kg
- ML residue in milk, Day 21 [1, 6]: 0.0014 mg/kg (2×) and <0.0010 mg/kg

SMILES: CCC(C)C1OC2(C=CC1C)CC1CC(CC=C(C)C(OC3CC(OC)C(OC4CC(OC)C(NC(C)=O)C(C)O4)C(C)O3)C(C)C=CC=C3COC4C(O)C(C)=CC(C(=O)O1)C34O)O2 (stereo not shown) [Eprinomectin]
- Residues in milk at 14 days after treatment relative to LOQ ([1]; all study animals (0.3 and 0.4 mg/kg IM)): below the limit of quantitation (LOQ)
- Residues in milk at 7 days after treatment ([1]; all study animals (0.3 and 0.4 mg/kg IM), compared with MRL): < 0.02 mg/kg
- Withholding period (milk) ([1]; estimated from residue data relative to the MRLs that apply in Europe): 7 days
- ML residue in milk, Day 14 [1, 5]: <0.0010 mg/kg
- ML residue in milk, Day 21 [1, 5]: <0.0010 mg/kg
- ML residue in milk, Day 7 ([1]; nominal 0.3 mg/kg single IM dose of ML/Rotavec Corona combination, milk (whole milk), listed as Eprinomectin B1a): 0.0012 mg/kg and 0.0017 mg/kg and <0.0010 mg/kg and 0.0023 mg/kg
- ML residue in milk, Day 14 [1, 6]: <0.0010 mg/kg
- ML residue in milk, Day 21 [1, 6]: <0.0010 mg/kg
- ML residue in milk, Day 7 ([1]; nominal 0.4 mg/kg single IM dose of ML/Rotavec Corona combination, milk (whole milk), listed as Eprinomectin B1a): <0.0010 mg/kg (2×) and 0.0021 mg/kg and 0.0013 mg/kg
- Parent compound share of residues in feces [2, 7]: more than 85%
- Parent compound share of residues in tissues [2, 7]: 90%
- Milk-plasma coefficient ([2]; cattle): ≤ 0.2
- Injection site reactions, Count, Day 1 (cattle; 0.3 mg/kg IM): 0
- Injection site reactions, Count, Day 3 (cattle; 0.3 mg/kg IM): 1
- Injection site reactions, Count, Day 7 (cattle; 0.3 mg/kg IM): 1
- Injection site reactions, Count, Day 14 (cattle; 0.3 mg/kg IM): 1
- Injection site reactions, Count, Day 21 (cattle; 0.3 mg/kg IM): 1
- Animals with injection site reactions that persisted at least until 21 days after treatment (cattle; 0.3 mg/kg IM): One
- Injection site reactions, Count, Day 1 (cattle; 0.4 mg/kg IM): 2
- Injection site reactions, Count, Day 3 (cattle; 0.4 mg/kg IM): 2
- Injection site reactions, Count, Day 7 (cattle; 0.4 mg/kg IM): 1
- Injection site reactions, Count, Day 14 (cattle; 0.4 mg/kg IM): 1
- Injection site reactions, Count, Day 21 (cattle; 0.4 mg/kg IM): 1
- Animals with injection site reactions that persisted at least until 21 days after treatment (cattle; 0.4 mg/kg IM): One
- Elimination in milk, fold less than ivermectin or moxidectin [3]: 50 fold
- Share of the total dose eliminated in the milk [3]: 0.1%

SMILES: CO/N=C1\C[C@]2(C[C@@H]3C[C@@H](C/C=C(\C)C[C@@H](C)/C=C/C=C4\CO[C@@H]5[C@H](O)C(C)=C[C@@H](C(=O)O3)[C@]45O)O2)O[C@H](/C(C)=C/C(C)C)[C@H]1C [Moxidectin, moxidectin]
- Residues in milk at 7 days after treatment relative to ACVM MRLs [1]: near or above the ACVM MRLs
- Residues in milk at 21 days after treatment relative to LOQ [1]: above the LOQ
- concentration at 7 day ([1]; milk fat, 0.3 mg/kg, nominal 0.3 mg/kg single IM dose of ML/Rotavec Corona combination, milk fat, read-out: ML residue in milk fat, Day 7): 800 ng/g
- concentration at 14 day ([1]; milk fat, 0.3 mg/kg, nominal 0.3 mg/kg single IM dose of ML/Rotavec Corona combination, milk fat, read-out: ML residue in milk fat, Day 14): 140 ng/g
- concentration at 21 day ([1]; milk fat, 0.3 mg/kg, nominal 0.3 mg/kg single IM dose of ML/Rotavec Corona combination, milk fat, read-out: ML residue in milk fat, Day 21): 59 ng/g
- concentration at 7 day ([1]; milk fat, 0.4 mg/kg, nominal 0.4 mg/kg single IM dose of ML/Rotavec Corona combination, milk fat, read-out: ML residue in milk fat, Day 7): 860 ng/g
- concentration at 7 day ([1]; milk, 0.3 mg/kg, nominal 0.3 mg/kg single IM dose of ML/Rotavec Corona combination, milk (whole milk), read-out: ML residue in milk, Day 7): 40 ng/g
- concentration at 14 day ([1]; milk, 0.3 mg/kg, nominal 0.3 mg/kg single IM dose of ML/Rotavec Corona combination, milk (whole milk), read-out: ML residue in milk, Day 14): 7.8 ng/g
- concentration at 21 day [1, 4]: 2.6 ng/g
- concentration at 7 day ([1]; milk, 0.4 mg/kg, nominal 0.4 mg/kg single IM dose of ML/Rotavec Corona combination, milk (whole milk), read-out: ML residue in milk, Day 7): 50 ng/g
- ML residue in milk, Day 7 [1, 5]: 0.063 mg/kg and 0.042 mg/kg and 0.034 mg/kg
- ML residue in milk, Day 14 [1, 5]: 0.010 mg/kg and 0.0099 mg/kg and 0.0079 mg/kg
- ML residue in milk, Day 21 [1, 5]: 0.0040 mg/kg and 0.0031 mg/kg and 0.0041 mg/kg
- ML residue in milk fat, Day 7 [1, 8]: 1.1 mg/kg and 1.0 mg/kg and 0.75 mg/kg
- ML residue in milk fat, Day 14 [1, 8]: 0.26 mg/kg and 0.24 mg/kg and 0.18 mg/kg
- ML residue in milk fat, Day 21 [1, 8]: 0.080 mg/kg and 0.068 mg/kg and 0.075 mg/kg
- ML residue in milk, Day 7 [1, 6]: 0.044 mg/kg and 0.056 mg/kg and 0.037 mg/kg
- ML residue in milk, Day 14 [1, 6]: 0.0081 mg/kg and 0.012 mg/kg and 0.015 mg/kg and 0.0069 mg/kg
- ML residue in milk, Day 21 [1, 6]: 0.0055 mg/kg (2×) and 0.0037 mg/kg and 0.0023 mg/kg
- ML residue in milk fat, Day 7 [1, 9]: 1.2 mg/kg and 1.5 mg/kg and 1.0 mg/kg
- ML residue in milk fat, Day 14 [1, 9]: 0.17 mg/kg and 0.37 mg/kg and 0.47 mg/kg and 0.15 mg/kg
- ML residue in milk fat, Day 21 [1, 9]: 0.091 mg/kg and 0.12 mg/kg and 0.14 mg/kg and 0.057 mg/kg
